Experimental findings from ChEMBL document CHEMBL3991601, “The target landscape of clinical kinase drugs” (Science, 2017) are described below.

Assay [1] has as its target Chromodomain-helicase-DNA-binding protein 4 (Homo sapiens, UniProt Q14839).
The next assay deals with T1, Ephrin type-B receptor 3 (Homo sapiens, UniProt P54753).
T1 sequence (P54753 whole entry): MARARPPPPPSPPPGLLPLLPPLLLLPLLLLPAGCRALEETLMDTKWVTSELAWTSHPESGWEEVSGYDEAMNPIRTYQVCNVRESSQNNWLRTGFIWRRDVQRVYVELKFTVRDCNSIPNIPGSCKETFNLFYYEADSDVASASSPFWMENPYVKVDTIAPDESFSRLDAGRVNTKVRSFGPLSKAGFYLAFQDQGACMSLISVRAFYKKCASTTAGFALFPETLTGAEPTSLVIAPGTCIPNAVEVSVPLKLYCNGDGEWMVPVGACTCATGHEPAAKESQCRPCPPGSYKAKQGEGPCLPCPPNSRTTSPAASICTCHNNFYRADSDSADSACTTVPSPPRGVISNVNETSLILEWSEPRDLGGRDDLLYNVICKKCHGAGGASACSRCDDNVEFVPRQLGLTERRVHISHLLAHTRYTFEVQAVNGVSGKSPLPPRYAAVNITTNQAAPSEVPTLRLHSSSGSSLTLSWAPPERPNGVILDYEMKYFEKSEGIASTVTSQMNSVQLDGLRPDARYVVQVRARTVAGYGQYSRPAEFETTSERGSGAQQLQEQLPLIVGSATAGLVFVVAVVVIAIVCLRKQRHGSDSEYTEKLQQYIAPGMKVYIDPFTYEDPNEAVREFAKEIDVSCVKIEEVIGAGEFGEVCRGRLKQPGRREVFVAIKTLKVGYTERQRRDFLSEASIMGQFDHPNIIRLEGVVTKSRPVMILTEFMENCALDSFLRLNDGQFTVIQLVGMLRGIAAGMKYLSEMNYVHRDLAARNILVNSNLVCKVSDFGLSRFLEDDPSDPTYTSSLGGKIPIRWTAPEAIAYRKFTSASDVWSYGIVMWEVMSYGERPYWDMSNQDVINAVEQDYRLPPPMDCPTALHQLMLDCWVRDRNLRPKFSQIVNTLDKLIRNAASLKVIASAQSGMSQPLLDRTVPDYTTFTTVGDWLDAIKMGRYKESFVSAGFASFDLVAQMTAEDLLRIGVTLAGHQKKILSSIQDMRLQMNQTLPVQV

In assay [2] the target is Serine/threonine-protein kinase/endoribonuclease IRE1 (Homo sapiens, UniProt O75460).
Assay [3] addresses T2, Serine/threonine-protein kinase LATS1 (Homo sapiens, UniProt O95835).
T2 sequence (O95835 whole entry): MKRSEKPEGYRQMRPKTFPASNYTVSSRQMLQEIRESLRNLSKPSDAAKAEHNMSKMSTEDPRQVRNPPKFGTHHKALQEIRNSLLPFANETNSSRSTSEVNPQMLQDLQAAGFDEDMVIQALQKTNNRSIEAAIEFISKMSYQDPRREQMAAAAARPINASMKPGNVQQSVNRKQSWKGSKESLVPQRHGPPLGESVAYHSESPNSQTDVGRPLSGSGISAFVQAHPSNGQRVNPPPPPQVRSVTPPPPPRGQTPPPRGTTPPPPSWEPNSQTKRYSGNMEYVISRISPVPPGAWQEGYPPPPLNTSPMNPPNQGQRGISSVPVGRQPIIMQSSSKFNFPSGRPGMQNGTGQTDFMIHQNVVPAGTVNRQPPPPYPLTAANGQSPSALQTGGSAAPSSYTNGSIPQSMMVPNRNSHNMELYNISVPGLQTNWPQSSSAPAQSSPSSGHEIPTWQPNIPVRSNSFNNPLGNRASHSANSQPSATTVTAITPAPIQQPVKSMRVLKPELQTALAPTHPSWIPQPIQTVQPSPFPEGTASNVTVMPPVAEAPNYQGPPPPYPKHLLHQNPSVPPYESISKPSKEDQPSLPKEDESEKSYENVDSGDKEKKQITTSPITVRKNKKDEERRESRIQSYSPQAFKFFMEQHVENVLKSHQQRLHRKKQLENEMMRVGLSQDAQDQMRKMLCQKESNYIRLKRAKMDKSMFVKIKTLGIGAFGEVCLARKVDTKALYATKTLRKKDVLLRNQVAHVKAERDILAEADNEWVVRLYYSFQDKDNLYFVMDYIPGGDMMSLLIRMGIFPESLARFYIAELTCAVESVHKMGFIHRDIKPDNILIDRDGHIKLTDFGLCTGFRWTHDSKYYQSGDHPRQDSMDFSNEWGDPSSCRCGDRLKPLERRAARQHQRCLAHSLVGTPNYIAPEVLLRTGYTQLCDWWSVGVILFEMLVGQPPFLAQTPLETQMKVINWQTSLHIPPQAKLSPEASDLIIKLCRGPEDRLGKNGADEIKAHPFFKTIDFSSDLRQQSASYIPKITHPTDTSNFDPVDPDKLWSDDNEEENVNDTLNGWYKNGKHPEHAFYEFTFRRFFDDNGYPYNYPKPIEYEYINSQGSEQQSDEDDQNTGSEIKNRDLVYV

Assay [4] addresses Mitogen-activated protein kinase kinase kinase kinase 4 (Homo sapiens, UniProt O95819).
Assay [5] addresses Macrophage-stimulating protein receptor (Homo sapiens, UniProt Q04912).
Assay [6] has as its target Serine/threonine-protein kinase PAK 2 (Homo sapiens, UniProt Q13177).
For assay [7], the target named is T3, Uncharacterized protein FLJ45252 (Homo sapiens, UniProt Q6ZSR9).
T3 sequence (Q6ZSR9 whole entry): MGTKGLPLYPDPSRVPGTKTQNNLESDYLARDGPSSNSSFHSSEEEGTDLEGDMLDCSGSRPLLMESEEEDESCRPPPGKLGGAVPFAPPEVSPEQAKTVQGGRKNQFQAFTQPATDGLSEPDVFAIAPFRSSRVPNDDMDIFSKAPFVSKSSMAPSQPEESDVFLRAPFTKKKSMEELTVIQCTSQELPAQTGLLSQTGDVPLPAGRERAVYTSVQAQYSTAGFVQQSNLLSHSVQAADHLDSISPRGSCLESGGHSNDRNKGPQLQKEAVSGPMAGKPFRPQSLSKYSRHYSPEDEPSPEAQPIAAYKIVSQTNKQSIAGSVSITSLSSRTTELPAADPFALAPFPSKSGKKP
The note with it: read-out: Kd apparent; k-562, colo 205, sk-n-be(2) and mv-4-11.

The source made the active and inactive calls. Cut-off read from the data, not from the text of the source, for most assays here: actives have a measured Kd and inactives only a lower limit. Bounds are passed on as bounds.
Note: in the data inactive means no Kd found up to 30 µM.

Chain of Serine/threonine-protein kinase PAK 2 (Q13177 whole entry): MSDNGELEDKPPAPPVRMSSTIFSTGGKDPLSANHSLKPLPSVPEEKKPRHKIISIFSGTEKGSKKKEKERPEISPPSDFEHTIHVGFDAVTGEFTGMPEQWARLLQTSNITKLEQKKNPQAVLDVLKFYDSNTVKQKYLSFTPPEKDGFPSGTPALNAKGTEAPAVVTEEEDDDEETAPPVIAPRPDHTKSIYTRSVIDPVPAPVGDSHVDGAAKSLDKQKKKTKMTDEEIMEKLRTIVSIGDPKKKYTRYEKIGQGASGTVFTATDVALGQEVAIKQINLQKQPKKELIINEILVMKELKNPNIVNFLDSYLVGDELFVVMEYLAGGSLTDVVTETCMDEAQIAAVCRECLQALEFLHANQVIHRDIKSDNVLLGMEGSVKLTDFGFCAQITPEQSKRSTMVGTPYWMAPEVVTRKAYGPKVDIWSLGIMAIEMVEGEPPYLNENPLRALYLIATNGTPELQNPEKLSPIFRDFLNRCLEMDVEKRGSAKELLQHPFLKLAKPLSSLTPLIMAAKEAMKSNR
Chain of Chromodomain-helicase-DNA-binding protein 4 (Q14839 whole entry): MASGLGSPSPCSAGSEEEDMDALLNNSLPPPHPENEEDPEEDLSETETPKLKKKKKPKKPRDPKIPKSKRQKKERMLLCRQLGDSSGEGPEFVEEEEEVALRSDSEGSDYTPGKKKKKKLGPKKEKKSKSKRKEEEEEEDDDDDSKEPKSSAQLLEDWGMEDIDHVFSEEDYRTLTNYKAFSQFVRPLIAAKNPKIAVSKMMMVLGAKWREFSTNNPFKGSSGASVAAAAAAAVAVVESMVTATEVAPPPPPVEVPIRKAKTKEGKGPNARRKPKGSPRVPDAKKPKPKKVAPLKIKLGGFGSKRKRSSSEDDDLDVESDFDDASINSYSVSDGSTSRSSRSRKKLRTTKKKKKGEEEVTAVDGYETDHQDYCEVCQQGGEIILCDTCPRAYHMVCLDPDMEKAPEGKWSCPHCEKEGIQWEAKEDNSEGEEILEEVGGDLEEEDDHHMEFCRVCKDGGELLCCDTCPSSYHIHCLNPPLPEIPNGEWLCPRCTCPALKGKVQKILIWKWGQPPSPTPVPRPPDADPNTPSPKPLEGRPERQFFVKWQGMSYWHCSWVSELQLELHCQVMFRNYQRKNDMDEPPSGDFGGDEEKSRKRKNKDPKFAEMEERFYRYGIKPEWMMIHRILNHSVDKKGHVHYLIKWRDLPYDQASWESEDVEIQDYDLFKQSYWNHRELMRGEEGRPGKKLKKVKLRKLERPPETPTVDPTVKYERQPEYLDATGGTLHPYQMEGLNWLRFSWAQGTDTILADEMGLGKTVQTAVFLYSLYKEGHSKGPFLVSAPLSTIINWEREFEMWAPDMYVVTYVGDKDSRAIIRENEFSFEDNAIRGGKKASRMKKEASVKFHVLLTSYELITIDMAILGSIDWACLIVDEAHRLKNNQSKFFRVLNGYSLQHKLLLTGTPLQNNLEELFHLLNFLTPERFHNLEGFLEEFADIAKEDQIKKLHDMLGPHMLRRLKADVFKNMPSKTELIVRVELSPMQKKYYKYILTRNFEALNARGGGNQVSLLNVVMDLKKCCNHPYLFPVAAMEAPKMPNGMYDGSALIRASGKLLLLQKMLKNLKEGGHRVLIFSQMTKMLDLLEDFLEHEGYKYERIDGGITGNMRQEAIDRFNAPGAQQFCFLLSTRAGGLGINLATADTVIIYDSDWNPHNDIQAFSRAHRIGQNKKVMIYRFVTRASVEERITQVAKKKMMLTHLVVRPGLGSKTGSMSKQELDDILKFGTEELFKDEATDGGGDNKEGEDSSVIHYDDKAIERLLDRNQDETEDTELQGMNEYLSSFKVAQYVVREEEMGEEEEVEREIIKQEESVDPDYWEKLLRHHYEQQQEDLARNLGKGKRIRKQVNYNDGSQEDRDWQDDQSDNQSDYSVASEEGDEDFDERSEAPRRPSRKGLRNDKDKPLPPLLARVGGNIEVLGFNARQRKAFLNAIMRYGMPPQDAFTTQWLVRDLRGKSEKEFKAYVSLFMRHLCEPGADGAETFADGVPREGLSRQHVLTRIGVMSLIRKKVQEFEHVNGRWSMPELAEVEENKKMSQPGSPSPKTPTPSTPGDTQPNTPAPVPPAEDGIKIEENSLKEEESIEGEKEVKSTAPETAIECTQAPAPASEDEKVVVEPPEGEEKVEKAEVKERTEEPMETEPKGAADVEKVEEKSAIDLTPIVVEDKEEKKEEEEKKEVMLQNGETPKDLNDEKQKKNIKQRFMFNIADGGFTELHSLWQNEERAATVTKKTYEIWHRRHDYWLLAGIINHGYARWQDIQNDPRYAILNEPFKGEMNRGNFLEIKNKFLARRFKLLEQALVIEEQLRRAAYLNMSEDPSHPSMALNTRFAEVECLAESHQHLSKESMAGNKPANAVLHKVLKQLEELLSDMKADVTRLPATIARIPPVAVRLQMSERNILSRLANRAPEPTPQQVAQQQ
Chain of Mitogen-activated protein kinase kinase kinase kinase 4 (O95819 whole entry): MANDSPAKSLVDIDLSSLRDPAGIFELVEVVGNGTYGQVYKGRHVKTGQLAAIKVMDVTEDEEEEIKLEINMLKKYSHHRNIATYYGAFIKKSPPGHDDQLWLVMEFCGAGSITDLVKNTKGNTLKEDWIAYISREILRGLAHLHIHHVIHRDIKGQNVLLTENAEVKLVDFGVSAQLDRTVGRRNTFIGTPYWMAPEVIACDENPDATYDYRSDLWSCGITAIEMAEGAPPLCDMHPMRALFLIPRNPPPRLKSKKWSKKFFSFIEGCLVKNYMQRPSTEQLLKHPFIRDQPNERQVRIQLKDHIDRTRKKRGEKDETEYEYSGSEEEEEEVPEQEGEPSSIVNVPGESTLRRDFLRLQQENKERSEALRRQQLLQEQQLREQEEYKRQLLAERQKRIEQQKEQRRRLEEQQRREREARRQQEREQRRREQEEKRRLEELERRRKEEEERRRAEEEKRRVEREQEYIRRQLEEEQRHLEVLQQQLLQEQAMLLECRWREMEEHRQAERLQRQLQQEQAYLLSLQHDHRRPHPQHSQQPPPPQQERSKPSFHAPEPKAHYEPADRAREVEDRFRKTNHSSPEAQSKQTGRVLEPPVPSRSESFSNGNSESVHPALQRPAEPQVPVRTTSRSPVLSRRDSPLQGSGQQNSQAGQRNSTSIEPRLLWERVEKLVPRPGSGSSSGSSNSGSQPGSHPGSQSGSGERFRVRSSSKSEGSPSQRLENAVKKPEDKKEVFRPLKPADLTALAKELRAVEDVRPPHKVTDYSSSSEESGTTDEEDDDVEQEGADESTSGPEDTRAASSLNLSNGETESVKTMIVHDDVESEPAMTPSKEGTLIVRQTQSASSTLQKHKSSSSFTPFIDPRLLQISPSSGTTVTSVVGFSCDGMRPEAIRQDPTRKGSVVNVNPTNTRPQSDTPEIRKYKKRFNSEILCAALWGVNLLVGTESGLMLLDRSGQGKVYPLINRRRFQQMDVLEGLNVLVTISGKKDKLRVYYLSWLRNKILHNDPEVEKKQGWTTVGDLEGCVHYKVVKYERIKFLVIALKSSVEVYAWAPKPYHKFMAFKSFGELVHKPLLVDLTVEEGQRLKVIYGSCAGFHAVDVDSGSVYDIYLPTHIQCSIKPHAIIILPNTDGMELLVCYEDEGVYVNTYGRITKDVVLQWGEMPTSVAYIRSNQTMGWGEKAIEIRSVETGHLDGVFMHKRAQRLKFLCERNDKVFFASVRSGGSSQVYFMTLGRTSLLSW
Chain of Macrophage-stimulating protein receptor (Q04912 25-304 limits assumed): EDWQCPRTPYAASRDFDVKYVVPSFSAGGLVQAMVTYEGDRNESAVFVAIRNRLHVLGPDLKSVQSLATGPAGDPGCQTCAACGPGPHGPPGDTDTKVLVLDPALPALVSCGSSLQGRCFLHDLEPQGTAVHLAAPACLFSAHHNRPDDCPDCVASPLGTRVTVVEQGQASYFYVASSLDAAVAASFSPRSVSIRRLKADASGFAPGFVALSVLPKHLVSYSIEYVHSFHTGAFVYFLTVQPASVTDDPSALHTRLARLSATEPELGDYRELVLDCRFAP
Chain of Macrophage-stimulating protein receptor (Q04912 310-1400 limits assumed): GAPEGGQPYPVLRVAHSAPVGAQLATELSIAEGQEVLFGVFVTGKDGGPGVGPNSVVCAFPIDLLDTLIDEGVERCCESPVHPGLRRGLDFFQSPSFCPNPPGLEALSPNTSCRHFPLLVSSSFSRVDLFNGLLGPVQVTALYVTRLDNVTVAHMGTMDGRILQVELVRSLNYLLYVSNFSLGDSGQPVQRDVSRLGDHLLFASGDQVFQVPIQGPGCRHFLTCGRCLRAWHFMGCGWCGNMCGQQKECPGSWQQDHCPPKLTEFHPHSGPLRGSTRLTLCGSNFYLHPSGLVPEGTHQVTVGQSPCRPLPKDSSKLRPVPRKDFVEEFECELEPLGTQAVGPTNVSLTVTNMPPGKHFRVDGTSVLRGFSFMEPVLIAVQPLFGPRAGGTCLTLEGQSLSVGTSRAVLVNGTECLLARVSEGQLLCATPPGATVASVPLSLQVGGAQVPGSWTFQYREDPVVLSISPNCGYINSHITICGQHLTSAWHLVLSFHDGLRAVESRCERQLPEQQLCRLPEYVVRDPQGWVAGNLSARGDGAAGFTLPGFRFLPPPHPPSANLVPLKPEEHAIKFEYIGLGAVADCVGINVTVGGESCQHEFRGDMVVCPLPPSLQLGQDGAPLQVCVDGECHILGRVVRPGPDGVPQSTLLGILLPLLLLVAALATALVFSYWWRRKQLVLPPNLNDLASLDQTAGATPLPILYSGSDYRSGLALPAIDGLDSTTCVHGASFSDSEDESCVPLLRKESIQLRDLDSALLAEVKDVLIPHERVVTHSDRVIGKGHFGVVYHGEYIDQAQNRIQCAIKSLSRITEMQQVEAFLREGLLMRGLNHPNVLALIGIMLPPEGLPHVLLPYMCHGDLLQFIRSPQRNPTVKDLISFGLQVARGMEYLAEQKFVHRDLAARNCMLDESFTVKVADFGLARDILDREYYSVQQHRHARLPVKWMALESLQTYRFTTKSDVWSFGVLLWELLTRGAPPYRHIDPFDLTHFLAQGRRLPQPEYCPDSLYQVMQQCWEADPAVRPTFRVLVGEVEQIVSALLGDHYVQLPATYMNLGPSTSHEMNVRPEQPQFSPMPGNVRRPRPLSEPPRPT

Regarding `COc1cc(CCc2cc(NC(=O)c3ccc(N4C[C@@H](C)N[C@@H](C)C4)cc3)n[nH]2)cc(OC)c1` [AZD-4547], the Kd (in assay [1]; on Ephrin type-B receptor 3; in assay [2]; in assay [3]; in assay [4]; in assay [5]) was > 30 µM (inactive) each time. Also, the Kd in assay [6] and in assay [7] was > 30 µM (inactive) throughout.

For `C[C@@H]1CN(Cc2ccc(F)cc2)[C@@H](C)CN1C(=O)c1cc2c(C(=O)C(=O)N(C)C)cn(C)c2cc1Cl` [TALMAPIMOD], the Kd (in assay [1]; at Ephrin type-B receptor 3; in assay [2]; in assay [3]; in assay [4]; in assay [5]) was > 30 µM (inactive) in each case. The Kd in assay [6] and in assay [7] was > 30 µM (inactive) throughout.

Take `CCS(=O)(=O)N1CC(CC#N)(n2cc(-c3ncnc4[nH]ccc34)cn2)C1` [BARICITINIB]: the Kd (in assay [1]; at Ephrin type-B receptor 3; in assay [2]; in assay [3]; in assay [4]; in assay [5]) was > 30 µM (inactive) each time. Moreover, the Kd is > 30 µM (inactive) in assay [6] and 0.078 µM (active) in assay [7].

As to `COc1ccc(-c2ccc3c(N4CCOC[C@@H]4C)nc(N4CCOC[C@@H]4C)nc3n2)cc1CO` [AZD-8055], the Kd (in assay [1]; on Ephrin type-B receptor 3; in assay [2]; in assay [3]; in assay [4]; in assay [5]) was > 30 µM (inactive) throughout. Further, the Kd in assay [6] and in assay [7] was > 30 µM (inactive) throughout.

In the case of `CN1CC[C@@H](c2c(O)cc(O)c3c(=O)cc(-c4ccccc4Cl)oc23)[C@@H]1CO`, the Kd (in assay [1]; at Ephrin type-B receptor 3; in assay [2]; in assay [3]; in assay [4]; in assay [5]) was > 30 µM (inactive) in each case. The Kd in assay [6] and in assay [7] was > 30 µM (inactive) each time.

Regarding `C=CC(=O)N1CCC(Oc2cc3c(Nc4ccc(Cl)c(Cl)c4F)ncnc3cc2OC)CC1` [POZIOTINIB], the Kd (in assay [1]; on Ephrin type-B receptor 3; in assay [2]; in assay [3]; in assay [4]; in assay [5]) was > 30 µM (inactive) throughout. Also, the Kd in assay [6] and in assay [7] was > 30 µM (inactive) in each case.

For `Cn1cc(-c2ccc3nnc(C(F)(F)c4ccc5ncccc5c4)n3n2)cn1` [JNJ-38877605], the Kd (in assay [1]; on Ephrin type-B receptor 3; in assay [2]; in assay [3]; in assay [4]; in assay [5]) was > 30 µM (inactive) throughout. For the same compound, the Kd in assay [6] and in assay [7] was > 30 µM (inactive) in each case.

On to `Cc1ccc(-n2nc(C(C)(C)C)cc2NC(=O)NCc2cc(F)ccc2Oc2ccc3c(cnn3CCO)c2)cc1` [PEXMETINIB], for which the Kd in assay [1] was > 30 µM (inactive); at Ephrin type-B receptor 3 it was 28.2 µM; in assay [2], > 30 µM (inactive); in assay [3], > 30 µM (inactive); in assay [4] it was 0.222 µM (active); in assay [5], > 30 µM (inactive). For the same compound, the Kd in assay [6] and in assay [7] was > 30 µM (inactive) in each case.

For the compound `CN1CCC(COc2cnc(-c3cccc(Cn4nc(-c5cccc(C#N)c5)ccc4=O)c3)nc2)CC1` [TEPOTINIB], the Kd (in assay [1]; at Ephrin type-B receptor 3; in assay [2]; in assay [3]; in assay [4]; in assay [5]) was > 30 µM (inactive) each time. Further, the Kd in assay [6] and in assay [7] was > 30 µM (inactive) in each case.
